Data from patent US20260000678A1, “PHARMACEUTICAL COMPOSITION FOR PREVENTING, SUPPRESSING, OR TREATING SYMPTOM ASSOCIATED WITH PSEUDO-ALLERGIC REACTION” (Takasaki University of Health and Welfare, priority 2022, published 2026).
“Also recorded” adds a separate entry of the source.

Legend:
[1] = test system: PMCs derived from P2X4 receptor-deficient mice; assay: Degranulation of PMCs derived from P2X4 receptor-deficient mice; assay type: cell-based, mouse; conditions: DNP-HSA or C48/80 stimulation with 100 uM ATP
Description: The abdominal cavity of wild-type C57BL/6 mice (7- to 8-week-old, male; n=4) or P2X4 receptor-deficient mice (7- to 8-week-old, male; n=4) was washed with 4 mL of RPMI1640 medium to prepare peritoneal cells. The cells were cultured in RPMI1640 medium containing 10% FBS, penicillin (100 unit/ml), streptomycin (100 μg/ml), recombinant mouse IL-3 (10 ng/ml, manufactured by PeproTech, Inc.), and 10 ng/mL of SCF (manufactured by PeproTech, Inc.) for 14 days to be used for the experiment. 95% or more of the prepared PMCs were double positive for c-KIT and FcεRI (FACSCant II, manufactured by BD Biosciences).
Anti-DNP-IgE antibody (clone: SPE-7, manufactured by Sigma-Aldrich, Inc.) was added to a culture solution containing PMCs derived from wild-type C57BL/6 mice or P2X4 receptor-deficient mice so that the concentration reached 50 ng/ml, and the PMCs were sensitized overnight. The PMCs were washed with PBS(−) and suspended in Krebs Ringer-HEPES Buffer containing 0.1% BSA (NaCl 130 mM, KCl 4.7 mM, NaHCO3 4.0 mM, KH2P4 1.2 mM, Glucose 11.5 mM, HEPES 10 mM, and CaCl2—H2O 1.8 mM) so that the concentration reached 1×10^6 cell/mL. […] 50 mM carbonate buffer (pH 10.0, 100 uL) was added to stop the enzyme reaction of β-hexosaminidase, and absorbance was measured at 405/655 nm using an absorbance microplate reader Sunrise (manufactured by Tecan Trading AG). […]

[2] = test system: PMCs; assay: Degranulation of PMCs (β-hexosaminidase release rate); assay type: cell-based, mouse; conditions: for Degranulation of PMCs by the stimulant alone: 37° C. 10 minutes, DNP-HSA on IgE-sensitized PMCs, BzATP 10 uM; for Effect on IgE receptor stimulation or degranulation by C48/80: α,β-methyl mATP 10 uM, ADP 100 uM, UDP-Glucose 100 uM
[3] = test system: wild-type C57BL/6 mice; assay: Passive systemic anaphylaxis caused by C48/80 (rectal temperature); assay type: in vivo, mouse; conditions: 10 mg/kg intraperitoneally 15 minutes before C48/80 (50 μg i.v.); vs vehicle; listed as Compound B
Description: Wild-type C57BL/6 mice (9-week-old, male; n=8) and P2X4 receptor-deficient mice (10-week-old, male; n=7) were intravenously administered with 100 μL of physiological saline containing 50 μg of C48/80 (manufactured by Sigma-Aldrich, Inc.). Thereafter, the rectal temperatures of the mice were measured with a digital thermometer (manufactured by Physitemp Instruments, LLC.) every 5 minutes for a period of 60 minutes.
Compound B, a P2X4 receptor antagonist, was used after being dissolved in physiological saline at a concentration of 10 mg/ml. In a passive systemic anaphylaxis test using the wild-type C57BL/6 mice of Example 1-1), 10 mg/kg of Compound B or a solvent thereof (vehicle) was intraperitoneally administered 15 minutes before administration of C48/80. […] From this, it was considered that the symptom of the pseudo-allergy can be reduced by the P2X4 receptor antagonist.

[4] = dose dependency, DNP-HSA 0, 1, 5, or 10 μg/mL
[5] = wild-type PMCs, C48/80 10 uM, Substance P 100 uM, PAMP-12 10 uM, vancomycin 1 mM

Nc1ncnc2c1ncn2[C@@H]1O[C@H](COP(=O)(O)OP(=O)(O)OP(=O)(O)O)[C@@H](O)[C@H]1O [ATP]
Effect of promoting degranulation of ATP in P2X4 receptor-deficient PMCs [1]: not observed
Effect of ATP on degranulation of PMCs by MrgprB2 stimulation with C48/80 ([2]; 100 uM ATP, C48/80 10 uM, wild-type PMCs): significantly promoted
Effect of ATP on degranulation of PMCs by IgE receptor stimulation (DNP-HSA) ([2]; 100 uM ATP, IgE (SPE-7)-sensitized wild-type PMCs): significantly promoted
Effect of ATP on dose dependency of degranulation by MrgprB2 stimulation with C48/80 ([2]; C48/80 0, 1, 10, or 100 uM): enhanced the maximum response; also recorded: significantly increased the degree of degranulation
Effect of ATP on degranulation of PMCs by Substance P, PAMP-12 and vancomycin ([2]; Substance P 100 uM, PAMP-12 10 uM, vancomycin 1 mM): promoted; also recorded: enhanced
Effect of ATP on degranulation by IgE receptor stimulation, DNP-HSA at a high concentration [2, 4]: not observed
Effect of ATP on degranulation by IgE receptor stimulation, DNP-HSA at a low concentration [2, 4]: promoted degranulation

Substance P
Degranulation of PMCs by the stimulant alone [2, 5]: induced

Nc1ncnc2c1ncn2[C@@H]1O[C@H](COP(=O)(O)CP(=O)(O)OP(=O)(O)O)[C@@H](O)[C@H]1O [α,β-methyl mATP]
Effect on IgE receptor stimulation or degranulation by C48/80 [2]: did not affect

O=C1CC(=O)N(c2ccc(NC(=O)c3ccccc3I)cc2)c2ccc3ccccc3c2N1 [Compound B48, 5-[4-(2-iodobenzoylamino)phenyl]-1H-naphtho[1,2-b][1,4]diazepine-2,4(3H,5H)-dione]
Suppression of the decrease in rectal temperature by C48/80 [3]: significantly suppressed
Suppression of the promotion of degranulation of PMCs by ATP ([2]; Compound at 10 uM before the degranulation reaction, C48/80 10 uM with or without 100 uM ATP, vs vehicle, listed as Compound B): significantly suppressed

CN[C@H](CC(C)C)C(=O)N[C@H]1C(=O)N[C@@H](CC(N)=O)C(=O)N[C@H]2C(=O)N[C@H]3C(=O)N[C@H](C(=O)N[C@H](C(=O)O)c4cc(O)cc(O)c4-c4cc3ccc4O)[C@H](O)c3ccc(c(Cl)c3)Oc3cc2cc(c3O[C@@H]2O[C@H](CO)[C@@H](O)[C@H](O)[C@H]2O[C@H]2C[C@](C)(N)[C@H](O)[C@H](C)O2)Oc2ccc(cc2Cl)[C@H]1O [vancomycin]
Degranulation of PMCs by the stimulant alone [2, 5]: induced

BzATP
Degranulation of PMCs by the stimulant alone [2, 5]: induced degranulation

Nc1ncnc2c1ncn2[C@@H]1O[C@H](COP(=O)(O)OP(=O)(O)O)[C@@H](O)[C@H]1O [ADP]
Effect on IgE receptor stimulation or degranulation by C48/80 [2]: did not affect

Proadrenomedullin N-terminal 20 peptide [PAMP-12]
Degranulation of PMCs by the stimulant alone [2, 5]: induced
